The results in this text go back to patent publication US20090042289A1, “Preservation of Cells” (University of Wales, Cardiff, priority 2000, published 2009).

One series in a line: in vitro. The note with it: rat.

Excerpt for hepatocytes: (§1) Data is expressed as a percentage of the number of viable cells (as determined by LDH activity) in the non-hydrolysed gelatin sandwich at each time point. Native Gel/cell slurry (-{acute over (◯)}-) wherein hepatocytes suspended in a gel of non-hydrolysed gelatin; Pre-adhered hepatocytes with Native gel blanket (-▪-) wherein hepatocytes allowed to adhere to the substratum before being blanketed by gel of non-hydrolysed gelatin; hydrolysed gelatin slurry (-x-) wherein hepatocytes suspended in a gel of non-hydrolysed gelatin hydrolysed at 95° C.; 75 bloom slurry (--) wherein hepatocytes suspended in a gel composed of 75 bloom gelatin (commercially available from Sigma); Pre-attached hepatocytes with Hydrolysed gel blanket (-◯-) wherein hepatocytes allowed to adhere to the substratum before being blanketed by a gel of hydrolysed gelatin.
Excerpt for in vitro: as §1

In general, viability refers to a read-out of living cells in per cent, often relative to untreated cells. A low value points to more harm to the cells. Take `OCC(O)CO` [glycerol]: the “cytotoxicity to hepatocytes during preservation” value with hepatocytes was “cytotoxic”. In “in vitro”, the viability at 7 days, 0.5 M amounted to 10%.
